Results: patent US20250108100A1, “C-TERMINAL FRAGMENT OF APOLIPOPROTEIN E AND APPLICATION THEREOF IN INHIBITING y-SECRETASE ACTIVITY” (SYNPHATEC (SHANGHAI) BIOPHARMACEUTICAL TECHNOLOGY CO., LTD., priority 2022, published 2025)
Entries after “also recorded” stand apart in the source; their conditions may differ.

Experiments:
[1] = Stability of ApoE2 in conditioned culture medium (Western blot); type: physicochemical; details: 37° C.; 48 hours
Procedure: N=9. […] The original ApoE2-containing culture medium (lane 1), the ApoE2-containing culture medium after incubation with untransfected cells for 48 hours (lane 2), and the ApoE2-containing culture medium separately stored in a 37° C. incubator for 48 hours (lane 3). […] DAPI, nuclear marker. […] MAP2, marker of mature neurons; DAPI, nuclear marker.

[2] = system: primary cultured mouse hippocampal or cortical neurons; assay: Endogenous Aβ40 in primary cultured mouse cortical or hippocampal neurons (lentivirus, ELISA); type: cell-based; details: primary cultured mouse neurons; lentivirus; vs GFP control
Procedure: Primary cultured neurons were derived from the cortex or hippocampus of 16-day embryonic mice. The mouse cortex or hippocampus was obtained under a stereoscope, and was digested at 37° C. for 10 minutes with 20 U/ml papain (Worthington Company). After digestion, the neurons that exist in single-cell form were seeded with 100,000 neurons per well (24-well plate); the neurons were cultured in the neuron culture medium (Neurobasal medium; ThermoFisher Company) containing 2% B27 (ThermoFisher Company) and 1% penicillin/streptomycin; the fresh culture medium was changed once a week.
The experiment was performed according to the standard procedure in the ELISA analysis kit of Invitrogen Company. • a) The target protein was expressed in HEK 293T cell line. Cells were subcultured one day before transfection, and transfection was performed when the degree of cell adhesion reached 70%-80%. […]
48 hours after transfection of HEK 293T cells and N2A cells, or 4.5 days after lentivirus infection of neurons, media and lysates were collected. Aβ40 and Aβ42 in the culture medium and cell lysates were detected by an Aβ ELISA kit as indicated in the protocol. […]

[3] = system: APP co-expressed in mouse neuron cell line N2A; assay: α-CTF produced by APP co-expressed in N2A cells (Western blot); type: cell-based; details: Western blot, vs GFP control
Procedure: Plasmids were transfected in HEK 293T or N2A cells for 36-48 hours and then lysed in cell lysis buffer [10% 1M tris-HCl (pH=6.8), 4% SDS, 20% glycerol, 0.01% bromophenol blue]. Lysates were shaken at room temperature for 10 min, then boiled for 10 min, and centrifuged at 12,000×g for 10 min. Proteins were run on 8% or 12% Tris-glycine SDS-PAGE and transferred to PVDF membranes (Life Technologies). Samples were incubated overnight at 4° C. with primary antibody diluted in 5% BSA buffer (in 1×TBST). After washing 3 times with 1×TBST, they were incubated with secondary antibody diluted in 5% BSA buffer (in 1×TBST) for 2 hours at room temperature. Finally, after washing 3 times with 1×TBST, the signal was detected by ECL Western blotting substrate (Solarbio, PE0010).
Data were analyzed by GraphPad Prism software (v6) using unpaired, paired, or one-sample t-tests. Aβ40 and Aβ42 levels were normalized to the corresponding GFP controls. α-CTF levels were normalized to FL-APP and corresponding GFP controls. All data are represented as mean±SEM. Statistical significance was defined as p<0.05. One, two, three and four stars (*) in the graph indicate p-values <0.05, <0.01, <0.001 and <0.0001, respectively.

Substance: ApoE2: human apolipoprotein E2, full-length 299 amino acid residues, SEQ ID NO: 12
- stability in conditioned medium [1]: can exist stably
- endogenously produced Aβ40 [2]: can reduce endogenously produced Aβ40; also recorded: could reduce the endogenous Aβ40
- α-CTF produced by co-expressed APP [3]: significantly increased the α-CTF levels
